Experimental findings from ChEMBL document CHEMBL1138452, “1-Sulfonylindazoles as potent and selective 5-HT6 ligands” (Bioorg Med Chem Lett, 2009) are described below.

Data set [1] concerns the target 5-hydroxytryptamine receptor 2B (Homo sapiens, UniProt P41595). In words: Binding affinity to 5HT2b receptor.
Data set [2] addresses T1, 5-hydroxytryptamine receptor 1A (Homo sapiens, UniProt P08908).
T1 sequence (P08908 whole entry): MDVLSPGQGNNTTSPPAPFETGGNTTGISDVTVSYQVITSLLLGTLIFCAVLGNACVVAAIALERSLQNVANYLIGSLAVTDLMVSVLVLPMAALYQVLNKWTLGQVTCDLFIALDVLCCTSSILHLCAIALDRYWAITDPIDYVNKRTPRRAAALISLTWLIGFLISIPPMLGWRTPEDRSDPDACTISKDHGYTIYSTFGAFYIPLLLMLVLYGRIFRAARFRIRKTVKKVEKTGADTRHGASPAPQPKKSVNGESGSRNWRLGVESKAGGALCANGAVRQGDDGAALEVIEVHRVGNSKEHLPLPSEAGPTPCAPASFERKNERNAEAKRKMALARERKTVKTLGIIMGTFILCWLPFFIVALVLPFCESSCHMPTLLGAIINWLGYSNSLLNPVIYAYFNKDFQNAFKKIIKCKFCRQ
In words: Binding affinity to 5HT1a receptor.

Data set [3] can be described thus: Metabolic stability in rat microsomes assessed as half life. It counts as ADME, Microsome.
The target of data set [4] is Cytochrome P450 2C9 (Homo sapiens, UniProt P11712). In words: Inhibition of CYP2C9. The format is ADME.
Data set [5] is described as follows: Metabolic stability in human microsomes assessed as half life. The format is ADME, Microsome.
Data set [6] has as its target T2, 5-hydroxytryptamine receptor 6 (Homo sapiens, UniProt P50406). In words: Displacement of [3H]LSD from human cloned 5HT6 receptor expressed in human HeLa cells. It counts as cell-based. On the technique in general: Displacement assays read how much labelled ligand stays bound in the presence of the test substance.
The target in data set [7] is T3, Alpha-2A adrenergic receptor (Homo sapiens, UniProt P08913).
T3 sequence (P08913 whole entry): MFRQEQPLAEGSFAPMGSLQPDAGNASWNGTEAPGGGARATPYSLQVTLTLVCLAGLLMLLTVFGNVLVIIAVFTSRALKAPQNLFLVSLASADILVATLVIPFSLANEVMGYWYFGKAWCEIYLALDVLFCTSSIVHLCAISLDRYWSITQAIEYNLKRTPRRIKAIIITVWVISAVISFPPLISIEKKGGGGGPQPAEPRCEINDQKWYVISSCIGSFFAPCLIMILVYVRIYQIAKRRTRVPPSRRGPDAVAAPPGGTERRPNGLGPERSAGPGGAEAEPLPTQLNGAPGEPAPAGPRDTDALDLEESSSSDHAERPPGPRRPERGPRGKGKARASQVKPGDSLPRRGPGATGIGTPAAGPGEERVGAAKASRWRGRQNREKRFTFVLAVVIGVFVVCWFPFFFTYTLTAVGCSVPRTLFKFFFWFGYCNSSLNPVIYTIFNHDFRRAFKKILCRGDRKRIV
In words: Binding affinity to adrenergic alpha2A receptor.

In data set [8] the target is T2, 5-hydroxytryptamine receptor 6. Briefly: Antagonist activity at human cloned 5HT6 receptor expressed in human HeLa cells assessed as blockage of 5-HT-stimulated cAMP formation. It counts as functional, cell-based.
Data set [9] concerns the target T4, 5-hydroxytryptamine receptor 2C (Homo sapiens, UniProt P28335).
T4 sequence (P28335 whole entry): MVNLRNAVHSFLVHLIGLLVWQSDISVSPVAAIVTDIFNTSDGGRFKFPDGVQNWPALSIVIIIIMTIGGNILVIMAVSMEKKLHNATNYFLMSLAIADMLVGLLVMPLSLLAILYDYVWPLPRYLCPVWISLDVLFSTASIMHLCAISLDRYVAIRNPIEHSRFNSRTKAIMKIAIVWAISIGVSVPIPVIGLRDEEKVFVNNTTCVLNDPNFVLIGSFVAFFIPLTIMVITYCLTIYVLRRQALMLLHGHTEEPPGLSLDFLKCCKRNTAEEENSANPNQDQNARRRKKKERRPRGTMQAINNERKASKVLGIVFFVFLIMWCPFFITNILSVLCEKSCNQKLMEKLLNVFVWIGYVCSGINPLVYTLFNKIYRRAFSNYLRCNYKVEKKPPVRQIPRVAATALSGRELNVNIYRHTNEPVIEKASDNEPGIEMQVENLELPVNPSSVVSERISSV
In words: Binding affinity to 5HT2c receptor.

In data set [10] the target is 5-hydroxytryptamine receptor 1B (Homo sapiens, UniProt P28222). Briefly: Binding affinity to 5HT1b receptor.
For data set [11], the target named is 5-hydroxytryptamine receptor 7 (Homo sapiens, UniProt P34969). In words: Binding affinity to 5HT7 receptor.
Data set [12] is described as follows: Oral bioavailability in Sprague-Dawley rat at 10 mg/kg. The format is ADME, organism-based. To be noted: in vivo.
Data set [13] relates to Rattus norvegicus. In words: Cognitive enhancing effect in Sprague-Dawley rat assessed as reversal of 24 hrs delay-induced retention deficit behavior at 10 mg/kp, po by novel object recognition assay. The format is functional, organism-based.
Data set [14] has as its target 5-hydroxytryptamine receptor 1D (Homo sapiens, UniProt P28221). Briefly: Binding affinity to 5HT1d receptor.
The target in data set [15] is Cytochrome P450 3A4 (Homo sapiens, UniProt P08684). In words: Inhibition of CYP3A4. It counts as ADME.
Data set [16] addresses Cytochrome P450 2D6 (Homo sapiens, UniProt P10635). Briefly: Inhibition of CYP2D6. The format is ADME.
In data set [17] the target is T2, 5-hydroxytryptamine receptor 6. In words: Agonist activity at human 5HT6 receptor expressed in CHOK1 cells assessed as increase in 5HT-induced intracellular calcium level at 0.1 to 10 uM by FLIPR assay. To be noted: CHO-K1. It counts as functional, cell-based.
The target in data set [18] is D(2) dopamine receptor (Homo sapiens, UniProt P14416). Briefly: Binding affinity to dopamine D2 receptor.

pIC50, pKi: −log10 of the molar value. Activity calls are given as the source filed them. No cut-off for these calls is given here.

Sequence of 5-hydroxytryptamine receptor 2B (P41595 whole entry): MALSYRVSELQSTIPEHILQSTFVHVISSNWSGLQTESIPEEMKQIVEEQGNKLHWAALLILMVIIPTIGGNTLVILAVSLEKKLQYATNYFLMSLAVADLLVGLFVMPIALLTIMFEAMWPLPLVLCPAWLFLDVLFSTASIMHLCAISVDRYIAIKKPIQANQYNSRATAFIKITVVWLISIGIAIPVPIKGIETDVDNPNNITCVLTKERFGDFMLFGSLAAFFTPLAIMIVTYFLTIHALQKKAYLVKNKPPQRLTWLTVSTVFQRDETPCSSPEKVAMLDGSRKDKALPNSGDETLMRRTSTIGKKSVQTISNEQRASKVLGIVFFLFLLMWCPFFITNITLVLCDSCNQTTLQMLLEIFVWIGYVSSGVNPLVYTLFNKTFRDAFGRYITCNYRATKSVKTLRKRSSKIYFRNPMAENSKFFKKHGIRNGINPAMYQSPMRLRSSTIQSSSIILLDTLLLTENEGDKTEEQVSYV
Sequence of D(2) dopamine receptor (P14416 whole entry): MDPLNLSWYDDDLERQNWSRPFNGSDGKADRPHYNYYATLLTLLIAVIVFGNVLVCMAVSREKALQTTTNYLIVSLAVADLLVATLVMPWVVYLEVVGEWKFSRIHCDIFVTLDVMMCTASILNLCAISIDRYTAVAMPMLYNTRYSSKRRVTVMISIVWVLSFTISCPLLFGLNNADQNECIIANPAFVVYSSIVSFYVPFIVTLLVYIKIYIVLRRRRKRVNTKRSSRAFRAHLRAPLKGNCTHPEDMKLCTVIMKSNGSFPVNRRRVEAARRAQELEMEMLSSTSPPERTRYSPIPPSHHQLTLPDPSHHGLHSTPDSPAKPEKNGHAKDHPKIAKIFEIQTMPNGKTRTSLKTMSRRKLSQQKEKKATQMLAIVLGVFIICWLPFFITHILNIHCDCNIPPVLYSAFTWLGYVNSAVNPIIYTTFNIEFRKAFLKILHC
Sequence of Cytochrome P450 2C9 (P11712 whole entry): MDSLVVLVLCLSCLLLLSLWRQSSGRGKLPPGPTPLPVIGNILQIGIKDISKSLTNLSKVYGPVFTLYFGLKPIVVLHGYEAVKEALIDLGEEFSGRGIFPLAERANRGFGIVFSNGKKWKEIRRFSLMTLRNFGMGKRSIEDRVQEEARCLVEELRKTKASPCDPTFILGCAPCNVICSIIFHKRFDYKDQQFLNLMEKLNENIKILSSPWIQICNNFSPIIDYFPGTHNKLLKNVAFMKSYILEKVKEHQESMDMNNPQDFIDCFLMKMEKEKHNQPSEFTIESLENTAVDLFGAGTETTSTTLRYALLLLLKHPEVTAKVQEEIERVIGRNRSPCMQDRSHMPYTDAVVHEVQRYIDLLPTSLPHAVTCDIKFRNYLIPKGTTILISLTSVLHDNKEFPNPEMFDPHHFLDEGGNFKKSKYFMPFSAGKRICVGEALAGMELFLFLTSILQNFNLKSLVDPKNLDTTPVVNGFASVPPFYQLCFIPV
Sequence of Cytochrome P450 3A4 (P08684 whole entry): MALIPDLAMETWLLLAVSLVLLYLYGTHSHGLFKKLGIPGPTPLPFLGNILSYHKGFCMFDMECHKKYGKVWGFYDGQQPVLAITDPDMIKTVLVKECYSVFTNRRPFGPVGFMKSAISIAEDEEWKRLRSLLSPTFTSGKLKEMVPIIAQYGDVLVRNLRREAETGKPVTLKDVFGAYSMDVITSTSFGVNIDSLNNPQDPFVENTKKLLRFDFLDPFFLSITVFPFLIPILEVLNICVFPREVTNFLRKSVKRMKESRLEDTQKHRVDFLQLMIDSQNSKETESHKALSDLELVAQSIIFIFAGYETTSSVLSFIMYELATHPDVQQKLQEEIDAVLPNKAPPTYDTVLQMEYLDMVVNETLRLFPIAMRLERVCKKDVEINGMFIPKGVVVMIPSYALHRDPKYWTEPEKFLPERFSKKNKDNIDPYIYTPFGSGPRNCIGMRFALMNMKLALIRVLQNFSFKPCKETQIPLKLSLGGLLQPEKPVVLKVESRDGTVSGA
T2 sequence (P50406 whole entry): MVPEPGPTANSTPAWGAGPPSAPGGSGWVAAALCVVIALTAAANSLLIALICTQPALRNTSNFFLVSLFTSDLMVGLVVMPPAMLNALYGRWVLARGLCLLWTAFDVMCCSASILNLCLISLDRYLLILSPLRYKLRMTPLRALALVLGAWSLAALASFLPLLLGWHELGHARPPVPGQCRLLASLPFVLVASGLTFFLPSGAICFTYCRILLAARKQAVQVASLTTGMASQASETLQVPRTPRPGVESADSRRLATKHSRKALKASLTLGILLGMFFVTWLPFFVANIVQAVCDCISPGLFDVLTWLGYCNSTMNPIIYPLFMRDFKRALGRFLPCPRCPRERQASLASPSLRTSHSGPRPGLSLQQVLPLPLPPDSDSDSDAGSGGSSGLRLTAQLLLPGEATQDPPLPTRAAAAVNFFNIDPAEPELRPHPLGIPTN
Sequence of 5-hydroxytryptamine receptor 1B (P28222 whole entry): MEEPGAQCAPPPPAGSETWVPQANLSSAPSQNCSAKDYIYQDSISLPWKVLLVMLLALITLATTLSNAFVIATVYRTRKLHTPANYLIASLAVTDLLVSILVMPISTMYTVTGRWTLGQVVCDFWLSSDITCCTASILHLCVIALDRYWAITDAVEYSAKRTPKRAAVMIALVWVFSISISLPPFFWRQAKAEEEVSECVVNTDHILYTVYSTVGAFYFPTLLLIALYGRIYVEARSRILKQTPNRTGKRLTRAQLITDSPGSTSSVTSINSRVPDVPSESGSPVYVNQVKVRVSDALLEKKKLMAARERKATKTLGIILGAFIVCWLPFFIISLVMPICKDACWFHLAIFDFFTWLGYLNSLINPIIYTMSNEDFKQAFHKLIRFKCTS
Sequence of 5-hydroxytryptamine receptor 1D (P28221 whole entry): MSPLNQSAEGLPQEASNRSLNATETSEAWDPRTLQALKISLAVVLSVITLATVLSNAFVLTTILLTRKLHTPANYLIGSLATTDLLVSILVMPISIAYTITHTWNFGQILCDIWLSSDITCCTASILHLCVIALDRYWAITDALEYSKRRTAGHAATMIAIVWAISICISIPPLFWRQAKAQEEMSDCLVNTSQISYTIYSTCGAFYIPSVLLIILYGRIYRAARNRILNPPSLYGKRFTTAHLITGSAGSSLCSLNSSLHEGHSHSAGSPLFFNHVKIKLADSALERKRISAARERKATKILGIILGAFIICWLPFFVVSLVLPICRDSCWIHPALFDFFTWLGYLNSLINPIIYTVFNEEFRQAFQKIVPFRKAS
Sequence of 5-hydroxytryptamine receptor 7 (P34969 whole entry): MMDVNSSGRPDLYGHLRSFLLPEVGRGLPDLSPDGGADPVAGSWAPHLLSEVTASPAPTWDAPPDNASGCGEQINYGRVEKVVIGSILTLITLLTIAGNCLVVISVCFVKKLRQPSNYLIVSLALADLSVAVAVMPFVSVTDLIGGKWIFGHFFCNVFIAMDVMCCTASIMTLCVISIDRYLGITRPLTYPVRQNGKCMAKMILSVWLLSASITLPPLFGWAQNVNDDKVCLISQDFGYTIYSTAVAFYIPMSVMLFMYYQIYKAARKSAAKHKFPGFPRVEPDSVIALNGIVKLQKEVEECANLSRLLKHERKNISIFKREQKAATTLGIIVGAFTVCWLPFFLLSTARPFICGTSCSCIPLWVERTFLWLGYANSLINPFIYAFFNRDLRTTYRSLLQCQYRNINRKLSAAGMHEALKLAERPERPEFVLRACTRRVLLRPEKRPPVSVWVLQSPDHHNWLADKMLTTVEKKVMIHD
Sequence of Cytochrome P450 2D6 (P10635 whole entry): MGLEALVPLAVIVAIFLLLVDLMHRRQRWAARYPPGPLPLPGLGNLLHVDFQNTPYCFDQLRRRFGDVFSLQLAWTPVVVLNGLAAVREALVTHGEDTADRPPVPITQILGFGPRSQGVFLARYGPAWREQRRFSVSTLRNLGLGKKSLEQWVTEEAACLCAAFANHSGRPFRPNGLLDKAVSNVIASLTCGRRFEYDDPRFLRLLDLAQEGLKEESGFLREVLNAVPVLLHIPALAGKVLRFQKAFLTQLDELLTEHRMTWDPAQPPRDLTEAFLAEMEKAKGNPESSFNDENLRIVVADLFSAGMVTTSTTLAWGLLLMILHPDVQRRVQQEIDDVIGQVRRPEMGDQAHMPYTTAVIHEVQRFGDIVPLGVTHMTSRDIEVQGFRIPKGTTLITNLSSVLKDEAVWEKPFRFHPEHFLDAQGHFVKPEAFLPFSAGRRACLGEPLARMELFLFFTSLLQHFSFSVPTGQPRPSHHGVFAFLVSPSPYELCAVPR

Usually pKi stands for −log10 of the Ki, conventionally taken in molar units. Low readings indicate a large Ki, high ones a small Ki. For orientation: half-life means the time in which the quantity being followed falls by half. The pIC50 is the negative decadic logarithm of the IC50, by convention in mol/L. Broadly, the bioavailability is the share of a dose that reaches the circulation, judged against a reference dose that is usually intravenous. A high value points to good availability. `O=C(Nc1ccc2cnn(S(=O)(=O)c3cccc4ccccc34)c2c1)C1CCCNC1` (racemic): the pKi in data set [1] is 6.76; in [2], 5.25; in data set [6] it was 8.89; in [7], under 5.70; in data set [9], under 5.70; in [10], 5.74. The pKi in data set [11] was 5.24; in data set [14], under 5.70; in [18], under 5.70. The figures for the half-life in data set [3] and in data set [5] were 8 min and over 30 min, respectively. Besides, the pIC50 was 3.85 in data set [4], 8.00 in data set [8], 3.59 in data set [15] and 3.96 in [16]. Moreover, the Imax in data set [8] is 100%. Moreover, the bioavailability in [12] was found to be 24%. Moreover, the result in data set [13] was Active. In addition, the result in data set [17] was inactive.
Compound `O=C(Nc1ccc2cnn(S(=O)(=O)c3cccc4ccccc34)c2c1)[C@H]1CCCNC1` had a negative-log Ki (pKi) in data set [6] of 8.49. Also, in [8], the outcome was Active.
On to `O=C(CCN1CCCCC1)Nc1ccc2cnn(S(=O)(=O)c3cccc4ccccc34)c2c1`, for which, in data set [8], the pIC50 is 6.77 and the Imax amounted to 100%.
For `CCN(CC)CCC(=O)Nc1ccc2cnn(S(=O)(=O)c3cccc4ccccc34)c2c1` the same measures were 6.59 and 100%.
With `NCCC(=O)Nc1cccc2c1cnn2S(=O)(=O)c1cccc2ccccc12`, the pKi in [1] is 6.81; in data set [2], 5.19; in [7], under 5.70; in data set [9], under 5.70; in data set [10] it was under 5.70; in data set [11], 5.29. In addition, the pKi in data set [14] and in data set [18] was under 5.70 throughout. Further, the half-life in [3] was 28 min; in data set [5], over 30 min. Further, the pIC50 in data set [4] is 5.15; in data set [8] it was 7.96; in data set [15], 4.52; in data set [16] it was 3.70. In data set [8], the Imax was 100%. The compound also showed a bioavailability in [12] of 7%.
As to `CNCCC(=O)Nc1ccc2cnn(S(=O)(=O)c3cccc4ccccc34)c2c1`, in data set [8], the pIC50 was 7.59 and the Imax turned out to be 100%.
In data set [6], `O=C(Nc1ccc2cnn(S(=O)(=O)c3cccc4ccccc34)c2c1)[C@@H]1CCCNC1` had a pKi of 8.40. Further, the outcome in data set [8] was Active.
In data set [6], `O=S(=O)(c1cccc2ccccc12)n1ncc2ccc(NCC3CCNCC3)cc21` gave a pKi of 7.74.
For the compound `NCCC(=O)Nc1ccc2cnn(S(=O)(=O)c3cccc4ccccc34)c2c1`, the outcome in data set [17] was inactive.
Regarding `O=C(Nc1ccc2cnn(S(=O)(=O)c3cccc4ccccc34)c2c1)C1CCNCC1`, the negative-log Ki (pKi) is 6.89 in data set [1]; 5.07 in data set [2]; under 5.70 in [7]; under 5.70 in [9]; under 5.70 in [10]; 5.16 in data set [11]. Besides, the pKi in [14] and in data set [18] was under 5.70 throughout. The half-life in data set [3] was 11 min; in data set [5], over 30 min. Moreover, the pIC50 in [4] is 3.43; in data set [8] it was 8.10; in data set [15] it was 4.21; in [16], 3.46. The Imax in data set [8] turned out to be 100%. This compound also showed a bioavailability in [12] of 5%. Further, the outcome in data set [17] was inactive.
In the case of `CN(C)CCC(=O)Nc1ccc2cnn(S(=O)(=O)c3cccc4ccccc34)c2c1`, in [8], the pIC50 was 7.28 and the Imax was 100%.
